For 27 compounds, IC50 results are on record in patent US8071810B2, “C5a receptor antagonists” (Jerini AG, priority 2005, dated 2011).

For one assay, the target named is T1, human C5a receptor (CD88) (Homo sapiens, UniProt P21730).
T1 construct: expressed in transfected cells; host or cells: rat basophilic leukemia (RBL) cells, stably transfected
T1 sequence (P21730 1-350): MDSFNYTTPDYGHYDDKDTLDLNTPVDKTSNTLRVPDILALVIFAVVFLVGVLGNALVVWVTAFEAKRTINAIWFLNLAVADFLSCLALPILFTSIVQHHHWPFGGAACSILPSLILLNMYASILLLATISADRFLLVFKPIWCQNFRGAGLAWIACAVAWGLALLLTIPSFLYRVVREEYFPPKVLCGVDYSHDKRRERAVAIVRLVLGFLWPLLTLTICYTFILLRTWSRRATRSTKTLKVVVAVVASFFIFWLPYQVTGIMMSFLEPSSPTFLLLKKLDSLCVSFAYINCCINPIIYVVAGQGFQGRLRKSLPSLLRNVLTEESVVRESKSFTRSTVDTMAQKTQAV
The assay can be described thus: C5a induced enzyme (glucosaminidase) release assay in RBL cells expressing the human C5a receptor (Example 28). The note with it: RBL cells with human C5aR; read-out: IC50 for the inhibition of C5a induced enzyme release. Format: cell-based. The method, then:
Basophile leukemia cells from rats (RBL), which express the human C5a receptor (CD88), are cultivated in DMEM with 10% fetal calf serum, 100 U/ml penicillin, 100 μg/ml streptomycin and 2 mM glutamin (all constituents are from Biochrome, Berlin) at 37° C. and with 10% CO2 until a confluent layer is obtained. All following details refer to a tissue culture flask with 75 cm^2 surface. The used up medium is removed. The cells are washed with 10 ml PBS (Dulbecco's PBS, Biochrome) and then covered with 3 ml cell dissociation solution (CDS, Sigma). The cells are incubated for 1 minute at room temperature. Then the CDS is removed and the cells are incubated for further 10-15 minutes at 37° C. to detach the cells completely from the flask. 20 μl solution of the compound to be testet are used in the assay. […] The dilution series are prepared in ⅓ or ½ steps. […] The cells are counted and centrifuged (200 g, 10 min). The cell pellet is taken up with pre-heated HAG-CM, and the cell density is adjusted to 2×10^6 Zellen/ml. The cells are incubated for 5 minutes at 37° C. 2.7 μl of a cytochalasin B solution (1000 μg/ml in DMSO, Sigma) are added per ml cell suspension. The Zellen are incubated for another 3 min at 37° C. Then, 75 μl of the cell suspension are added to the 20 μl solution containing the compounds to be tested. […] The cells are again incubated for 10 minutes at 37° C. […] After this the plates are put on ice and centrifuged for 3 minutes at 1200×g and 4° C. […] The plate is incubated for 1 hour at 37° C. […] The IC50 value is determined by solving the four parameter equation y=((A−D)/(1+(x/C)^B))+D.
A word on the IC50: it is the concentration that inhibits the measured activity by half. As for `CCc1c(N)cc(Cl)c(CC)c1NC(=O)N(c1ccc(C(C)C)cc1)[C@H](C)c1ccc(OC)cc1` [compound 56, (R)-3-(3-amino-5-chloro-2,6-diethyl-phenyl)-1-(4-isopropyl-phenyl)-1-[1-(4-methoxy-phenyl)ethyl]-urea], the IC50 stood at 619 nM.
As to `CCc1c(N)cc(Cl)c(CC)c1NC(=O)N(Cc1ccc(C)nc1)c1ccc(OC)c2ccccc12`, the IC50 was determined as 55 nM.
`CCc1ccc(N(C(=O)Nc2c(CC)c(N)cc(Cl)c2CC)[C@@H](C)c2ccc(Cl)cc2)cc1F`: the IC50 worked out at 35 nM.
Same read-out and setting: then `CCc1c(N)cc(Cl)c(CC)c1NC(=O)N(Cc1ccc(Cl)nc1)c1ccc(C(C)C)cc1`, with 62 nM.

Still in this assay, the particulars now being: inhibition of C5a induced enzyme release, RBL cells with human C5aR; read-out: Activity-range (antagonistic activity, IC50 enzyme release).
Take `CCc1ccc(N)c(CC)c1NC(=O)N(c1ccc(C(C)C)cc1)[C@@H](C)c1ccc(C)cc1` [compound 69, (S)-3-(3-amino-2,6-diethyl-phenyl)-1-(4-isopropyl-phenyl)-1-(1-p-tolyl-ethyl)-urea]: the IC50 is 60 to 200 nM.
For the compound `CCc1ccc(CN(C(=O)Nc2c(CC)c(N)cc(Cl)c2CC)c2ccc(C(C)C)cc2)cc1` [compound 35, 3-(3-amino-5-chloro-2,6-diethyl-phenyl)-1-(4-ethyl-benzyl)-1-(4-isopropyl-phenyl)-urea], the IC50 was in the range of 200 to 5000 nM.
Take `CCc1ccc(N)c(CC)c1NC(=O)N(Cc1ccc(C)cc1)c1ccc(C(C)C)cc1` [compound 39, 3-(3-amino-2,6-diethyl-phenyl)-1-(4-isopropyl-phenyl)-1-(4-methyl-benzyl)-urea]: the IC50 fell in the range of 200 to 5000 nM.
`CCc1ccc(N(C(=O)Nc2c(CC)c(N)cc(Cl)c2CC)C(C[N+](=O)[O-])c2ccccc2)cc1` (stereo not drawn) [compound 112, 3-(3-amino-5-chloro-2,6-diethyl-phenyl)-1-(4-ethyl-phenyl)-1-(2-nitro-1-phenyl-ethyl)-urea]: the IC50 was in the range of 200 to 5000 nM.
For the compound `CCc1ccc(N(Cc2ccc(C)nc2)C(=O)Nc2c(CC)ccc(N)c2CC)cc1` [compound 107, 3-(3-amino-2,6-diethyl-phenyl)-1-(4-ethyl-phenyl)-1-(6-methyl-pyridin-3-ylmethyl)-urea], the IC50 was in the range of 200 to 5000 nM.
Turning to `CCc1ccc(N(Cc2ccc(C)cc2)C(=O)Nc2c(CC)c(N)cc(Cl)c2CC)cc1` [compound 53, 3-(3-amino-5-chloro-2,6-diethyl-phenyl)-1-(4-ethyl-phenyl)-1-(4-methyl-benzyl)-urea], the IC50 is 60 to 200 nM.
Consider `CCc1c(N)cc(Cl)c(CC)c1NC(=O)N(c1ccc(OC)cc1CO)[C@@H](C)c1ccc(Cl)cc1` [compound 109, (S)-3-(3-amino-5-chloro-2,6-diethyl-phenyl)-1-[1-(4-chloro-phenyl)-ethyl]-1-(2-hydroxymethyl-4-methoxy-phenyl)-urea], for which the IC50 lay within 200 to 5000 nM.
In the case of `CCc1c(N)cc(Cl)c(CC)c1NC(=O)N(Cc1ccc(OC)nc1)c1ccc(C(C)C)cc1` [compound 47, 3-(3-amino-5-chloro-2,6-diethyl-phenyl)-1-(4-isopropyl-phenyl)-1-(6-methoxy-pyridin-3-ylmethyl)-urea], the IC50 is 200 to 5000 nM.
For `CCc1c(N)cc(Cl)c(CC)c1NC(=O)N(Cc1ccc(S(C)(=O)=O)cc1)c1ccc(C(C)C)cc1` [compound 64, 3-(3-amino-5-chloro-2,6-diethyl-phenyl)-1-(4-isopropyl-phenyl)-1-(4-methansulfonyl-benzyl)-urea], the IC50 fell in the range of 200 to 5000 nM.
The same measure, in the same setting: in the case of `CCc1ccc(NCC(=O)OC)c(CC)c1NC(=O)N(Cc1ccc(OC)cc1)c1ccc(C(C)C)cc1` [compound 30, {2,4-diethyl-3-[3-(4-isopropyl-phenyl)-3-(4-methoxy-benzyl)-ureido]-phenylamino}-acetic acid methyl ester] it was 200 to 5000 nM; in that of `CCc1c(N)cc(Cl)c(CC)c1NC(=O)N(Cc1ccccc1)c1ccc(NC)cc1` [compound 129, 3-(3-amino-5-chloro-2,6-diethyl-phenyl)-1-benzyl-1-(4-methylamino-phenyl)-urea], 60 to 200 nM; in that of `CCc1ccc(N(C(=O)Nc2c(C(C)(C)C)ccc(N)c2C)[C@@H](C)c2ccc(Cl)cc2)cc1` [compound 111, (S)-3-(3-amino-6-tert-butyl-2-methyl-phenyl)-1-[1-(4-chloro-phenyl)-ethyl]-1-(4-ethyl-phenyl)-urea], 200 to 5000 nM.
`CCc1c(N)cc(Cl)c(CC)c1NC(=O)N(c1ccc(C(C)C)cc1)[C@H]1CCCc2ccccc21` [compound 42, (S)-3-(3-amino-5-chloro-2,6-diethyl-phenyl)-1-(4-isopropyl-phenyl)-1-(1,2,3,4-tetrahydro-naphthaline-1-yl)-urea]: the IC50 lay in the range of 60 to 200 nM.
The same measure, in the same setting: then `CCc1ccc(N(Cc2ccc(Br)cc2)C(=O)Nc2c(CC)c(N)cc(Cl)c2CC)cc1` [compound 99, 3-(3-amino-5-chloro-2,6-diethyl-phenyl)-1-(4-bromo-benzyl)-1-(4-ethyl-phenyl)-urea], with less than 60 nM.
The same measure, in the same setting: then `CCc1ccc(N)c(CC)c1NC(=O)N(CCc1ccccc1)c1ccc(C(C)C)cc1` [compound 51, 3-(3-amino-2,6-diethyl-phenyl)-1-(4-isopropyl-phenyl)-1-phenethyl-urea], with 200 to 5000 nM.
In the case of `CCc1c(N)cc(Cl)c(CC)c1NC(=O)N(Cc1ccc(Cl)cc1)c1ccc(SC(F)(F)F)cc1` [compound 93, 3-(3-amino-5-chloro-2,6-diethyl-phenyl)-1-(4-chloro-benzyl)-1-(4-trifluoromethylsulfanyl-phenyl)-urea], the IC50 was 200 to 5000 nM.
For the compound `COc1ccc(CN(C(=O)Nc2c(C(C)C)cccc2C(C)C)c2ccc(C(C)C)cc2)cc1` [compound 134, 3-(2,6-diisopropyl-phenyl)-1-(4-isopropyl-phenyl)-1-(4-methoxy-benzyl)-urea], the IC50 lay in the range of 200 to 5000 nM.
The same measure, in the same setting: in the case of `CCc1c(N)cc(Cl)c(CC)c1NC(=O)N(Cc1ccc(Cl)cc1)c1ccc(OC)c2nc(C)c(C)nc12` [compound 130, 3-(3-amino-5-chloro-2,6-diethyl-phenyl)-1-(4-chloro-benzyl)-1-(8-methoxy-2,3-dimethyl-chinoxalin-5-yl)-urea] it was 200 to 5000 nM; in that of `CCc1c(N)cc(Cl)c(CC)c1NC(=O)N(Cc1ccc(Cl)cc1)c1ccc(NC)c2ccccc12` [compound 139, 3-(3-amino-5-chloro-2,6-diethyl-phenyl)-1-(4-chloro-benzyl)-1-(4-methylamino-naphthalin-1-yl)-urea], 200 to 5000 nM; in that of `CCc1ccc(N)c(CC)c1NC(=O)N(c1ccc(C(C)C)cc1)[C@@H](C)c1ccc(OC)cc1` [compound 71, (S)-3-(3-amino-2,6-diethyl-phenyl)-1-(4-isopropyl-phenyl)-1-[1-(4-methoxy-phenyl)-ethyl]-urea], 60 to 200 nM.
For the compound `CCc1c(N)cc(Cl)c(CC)c1NC(=O)N(Cc1cnc(OC)nc1OC)c1ccc(C(C)C)cc1` [compound 77, 3-(3-amino-5-chloro-2,6-diethyl-phenyl)-1-(2,4-dimethoxy-pyrimidin-5-ylmethyl)-1-(4-isopropyl-phenyl)-urea], the IC50 is 200 to 5000 nM.
Consider `CCc1ccc(N(Cc2cnn(CC)c2)C(=O)Nc2c(CC)c(N)cc(Cl)c2CC)cc1` [compound 91, 3-(3-amino-5-chloro-2,6-diethyl-phenyl)-1-(4-ethyl-phenyl)-1-(1-ethyl-1H-pyrazol-4-ylmethyl)-urea], for which the IC50 fell in the range of 200 to 5000 nM.
In the case of `CCc1ccc(N)c(CC)c1NC(=O)N(Cc1ccc(C(F)(F)F)cc1)c1ccc(C(C)C)cc1` [compound 50, 3-(3-amino-2,6-diethyl-phenyl)-1-(4-isopropyl-phenyl)-1-(4-trifluoromethyl-benzyl)-urea], the IC50 lay within 200 to 5000 nM.
